What was measured:
Assay type in all cases: cell-based
S. aureus ATCC 29213 = assay: Minimum Inhibitory Concentration (MIC) assay, S. aureus; details: Staphylococcus aureus, ATCC29213; broth microdilution; read-out: MIC against S. Aureus
Experimental: (§1) The antimicrobial activity of the compounds of the invention may be evaluated by a number of methods, including the following visual minimum inhibitory concentration (MIC) assay. This assay determines the minimum concentration of compound required to inhibit growth of a bacterial strain.
(§2) Minimum Inhibitory Concentration (MIC) Assay
(§3) Whole-cell antibacterial activity is determined by broth microdilution using conditions recommended by the NCCLS (see National Committee for Clinical Laboratory Standards. 2001. Performance standards for antimicrobial susceptibility testing: 11th informational supplement. Vol. 21, no. 1, M100-S11. National Committee for Clinical Laboratory Standards, Wayne, Pa.). Test compounds are dissolved in DMSO and diluted 1:50 in Mueller-Hinton II broth (Becton-Dickinson) to produce a 256 μg/ml stock solution. In a 96-well microtiter plate, the compound solution is serially two-fold diluted in Mueller-Hinton II broth. After the compounds are diluted, a 50 μl aliquot of the test organism (˜1×10^6 cfu/mL) is added to each well of the microtiter plate. The final test concentrations ranges from 0.125-128 μg/mL. Inoculated plates are incubated in ambient air at 37° C. for 18 to 24 hours. The organisms selected for testing included laboratory strains S. aureus ATCC 29213 and E. coli ATCC 25922 (strains purchased from American Type Culture Collection, Manassas, Va.), S. aureus FQR700699, and Paeruginosa 27853. The minimum inhibitory concentration (MIC) is determined as the lowest concentration of compound that inhibited visible growth of the test organism.

MRSA strain ATCC 700699 = assay: Minimum Inhibitory Concentration (MIC) assay, Methicillin Resistant S. Aureus; details: Staphylococcus aureus; broth microdilution; read-out: MIC against Methicillin Resistant S. Aureus
From the text: It has been unexpectedly discovered that substitution of compounds of Formula I and Formula II with a methoxy substituent at the R8 position increases the anti-microbial activity of the compound against Methicillin resistant Staphylococcus Aureus bacteria while at the same time decreasing the cellular toxicity of the compound. The simultaneous increase in compound activity and decrease in compound toxicity provides a greater therapeutic range for compounds of Formula I and Formula II in which R8 is methoxy; i.e. the range of doses of such compounds that will produce beneficial effects without harmful side effects is increased. […] Therapeutic range is determined using a standard assay of cytotoxicity such as the Alamar blue assay provided in Example 10.
as §1, §2, §3

E. coli ATCC 25922 = assay: Minimum Inhibitory Concentration (MIC) assay, E. coli; details: Escherichia coli, ATCC25922; broth microdilution; read-out: MIC against E. coli
Experimental: as §1, §2, §3

MIC (S. aureus ATCC 29213) | MIC (MRSA strain ATCC 700699) | MIC (E. coli ATCC 25922) | SMILES
≤ 1 µg/mL | ≤ 1 µg/mL | – | COc1c(N2CC[C@@H](C(C)NC(C)C)C2)c(F)cc2c(=O)c3c(=O)[nH]sc3n(C3CC3)c12 (stereo partly drawn) [Compound 112, (R)-9-cyclo-propyl-6-fluoro-7-(3-(1-(isopropyl-amino)ethyl)pyrrolidin-1-yl)-8-methoxyiso-thiazolo[5,4-b]quinoline-3,4(2H,9H)-dione]
≤ 1 µg/mL | ≤ 1 µg/mL | – | CC[C@@H](NC)[C@@H]1CCN(c2c(F)cc3c(=O)c4c(=O)[nH]sc4n(C4CC4)c3c2OC)C1 [Compound 92, 9-cyclopropyl-6-fluoro-8-methoxy-7-((R)-3-((R)-1-(methylamino)-propyl)pyrrolidin-1-yl)isothia-zolo[5,4-b]quinoline-3,4(2H,9H)-dione]
≤ 1 µg/mL | ≤ 1 µg/mL | – | COc1c(N2CCC(CN)C2)c(F)cc2c(=O)c3c(=O)[nH]sc3n(C3CC3)c12 (stereo not shown) [Compound 66, 7-(3-(aminomethyl)-pyrrolidin-1-yl)-9-cyclopropyl-6-fluoro-8-methoxyiso-thiazolo[5,4-b]quinoline-3,4(2H,9H)-dione]
≤ 1 µg/mL | ≤ 1 µg/mL | – | CN[C@H](C)[C@@H]1CCN(c2c(F)cc3c(=O)c4c(=O)[nH]sc4n(C4CC4)c3c2OC)C1 [Compound 107, 9-cyclopropyl-6-fluoro-8-methoxy-7-((R)-3-((R)-1-(methyl-amino)ethyl)pyrrolidin-1-yl)isothia-zolo[5,4-b]quinoline-3,4(2H,9H)-dione]
≤ 1 µg/mL | – | ≤ 1 µg/mL | CC(C)(C)OC(=O)NC1CCN(c2cc3c(cc2F)c(=O)c2c(=O)[nH]sc2n3C2CC2)C1 (stereo not shown) [Compound 27, tert-butyl 1-(9-cyclopropyl-6-fluoro-3,4-dioxo-2,3,4,9-tetrahydroiso-thiazolo[5,4-b]quinolin-7-yl)pyrrolidin-3-ylcarbamate]
≤ 1 µg/mL | ≤ 1 µg/mL | – | COc1c(N2CC[C@@H]([C@H](C)N)C2)ccc2c(=O)c3c(=O)[nH]sc3n(C3CC3)c12 [Compound 111, 7-((R)-3-((S)-1-aminoethyl)-pyrrolidin-1-yl)-9-cyclo-propyl-8-methoxyiso-thiazolo[5,4-b]quinoline-3,4(2H,9H)-dione]
≤ 1 µg/mL | – | ≤ 1 µg/mL | CN(C)CCN1CCN(c2cc3c(cc2F)c(=O)c2c(=O)[nH]sc2n3C2CC2)CC1 [Compound 32, 9-cyclopropyl-7-(4-(2-(dimethyl-amino)ethyl)piperazin-1-yl)-6-fluoroiso-thiazolo[5,4-b]quinoline-3,4(2H,9H)-dione]
≤ 1 µg/mL | – | ≤ 1 µg/mL | O=c1[nH]sc2c1c(=O)c1cc(F)c(N3CCN(CCN4CCOCC4)CC3)cc1n2C1CC1 [Compound 33, 9-cyclopropyl-6-fluoro-7-(4-(2-morpho-linoethyl)piperazin-1-yl)isothia-zolo[5,4-b]quinoline-3,4(2H,9H)-dione]
≤ 1 µg/mL | – | ≤ 1 µg/mL | O=c1[nH]sc2c1c(=O)c1cc(F)c(NCCN3CCOCC3)cc1n2C1CC1 [Compound 29, 9-cyclopropyl-6-fluoro-7-(2-morpholino-ethyl-amino)iso-thiazolo[5,4-b]quinoline-3,4(2H,9H)-dione]
≤ 1 µg/mL | – | ≤ 1 µg/mL | COc1c(N2CC[C@H](CN)C2)ccc2c(=O)c3c(=O)[nH]sc3n(C3CC3)c12 [Compound 90, (R)-7-(3-(aminomethyl)-pyrrolidin-1-yl)-9-cyclopropyl-8-methoxyiso-thiazolo[5,4-b]quinoline-3,4(2H,9H)-dione]
≤ 1 µg/mL | – | ≤ 1 µg/mL | COc1cc2c(=O)c3c(=O)[nH]sc3n(C3CC3)c2c(F)c1N1CC[C@@H](CN)C1 [Compound 85, (S)-7-(3-(aminomethyl)-pyrrolidin-1-yl)-9-cyclo-propyl-8-fluoro-6-methoxyiso-thiazolo[5,4-b]quinoline-3,4(2H,9H)-dione]
≤ 1 µg/mL | – | ≤ 1 µg/mL | CCn1c2cc(NCc3ccncc3)c(F)cc2c(=O)c2c(=O)[nH]sc21 [Compound 35, 9-ethyl-6-fluoro-7-(pyridin-4-ylmethylamino) isothiazolo[5,4-b]quinoline-3,4(2H,9H)-dione]
≤ 1 µg/mL | ≤ 1 µg/mL | – | CN[C@@H](C)[C@@H]1CCN(c2c(F)cc3c(=O)c4c(=O)[nH]sc4n(C4CC4)c3c2OC)C1 [Compound 108, 9-cyclopropyl-6-fluoro-8-methoxy-7-((R)-3-((S)-1-(methylamino)-ethyl)pyrrolidin-1-yl)isothia-zolo[5,4-b]quinoline-3,4(2H,9H)-dione]
≤ 1 µg/mL | – | ≤ 1 µg/mL | COc1c(N2CC[C@@H](C(C)N(C)C)C2)c(F)cc2c(=O)c3c(=O)[nH]sc3n(C3CC3)c12 (stereo partly drawn) [Compound 81, (R)-9-cyclo-propyl-7-(3-(1-(di-methylamino)ethyl)pyrrolidin-1-yl)-6-fluoro-8-methoxyiso-thiazolo[5,4-b]quinoline-3,4(2H,9H)-dione]
≤ 1 µg/mL | – | ≤ 1 µg/mL | COc1c(N2CC[C@@H](CN(C)C)C2)c(F)cc2c(=O)c3c(=O)[nH]sc3n(C3CC3)c12 [Compound 86, (S)-9-cyclo-propyl-7-(3-((dimethyl-amino)methyl)pyrrolidin-1-yl)-6-fluoro-8-methoxyiso-thiazolo[5,4-b]quinoline-3,4(2H,9H)-dione]
≤ 1 µg/mL | – | ≤ 1 µg/mL | CCNC1CN(c2c(F)cc3c(=O)c4c(=O)[nH]sc4n(C4CC4)c3c2OC)C1 [Compound 106, 9-cyclopropyl-7-(3-(ethylamino)-azetidin-1-yl)-6-fluoro-8-methoxyiso-thiazolo[5,4-b]quinoline-3,4(2H,9H)-dione]
≤ 1 µg/mL | – | ≤ 1 µg/mL | CN1CCN(c2cc3c(cc2F)c(=O)c2c(=O)[nH]sc2n3C2CC2)CC1 [Compound 21, 9-cyclopropyl-6-fluoro-7-(4-methyl-piperazin-1-yl)isothia-zolo[5,4-b]quinoline-3,4(2H,9H)-dione]
≤ 1 µg/mL | – | ≤ 1 µg/mL | COc1c(N2CC[C@@H](CNC3CC3)C2)ccc2c(=O)c3c(=O)[nH]sc3n(C3CC3)c12 [Compound 101, (S)-9-cyclo-propyl-7-(3-((cyclopropyl-amino)methyl)-pyrrolidin-1-yl)-8-methoxyiso-thiazolo[5,4-b]quinoline-3,4(2H,9H)-dione]
≤ 1 µg/mL | – | ≤ 1 µg/mL | COc1c(N2CC[C@@H](C(C)(C)N(C)C)C2)c(F)cc2c(=O)c3c(=O)[nH]sc3n(C3CC3)c12 [Compound 82, (R)-9-cyclo-propyl-7-(3-(2-(dimethyl-amino)propan-2-yl)pyrrolidin-1-yl)-6-fluoro-8-methoxyiso-thiazolo[5,4-b]quinoline-3,4(2H,9H)-dione]
≤ 1 µg/mL | – | ≤ 1 µg/mL | O=C1CCN(c2cc3c(cc2F)c(=O)c2c(=O)[nH]sc2n3C2CC2)CC1 [Compound 40, 9-cyclopropyl-6-fluoro-7-(4-oxo-piperidin-1-yl)isothia-zolo[5,4-b]quinoline-3,4(2H,9H)-dione]
≤ 1 µg/mL | – | ≤ 1 µg/mL | O=c1[nH]sc2c1c(=O)c1cc(F)c(N3CCOCC3)cc1n2C1CC1 [Compound 19, 9-cyclopropyl-6-fluoro-7-morpholino-isothiazolo[5,4-b]quinoline-3,4(2H,9H)-dione]
≤ 1 µg/mL | – | ≤ 1 µg/mL | CCn1c2cc(N3CCN(CCN(C)C)CC3)c(F)cc2c(=O)c2c(=O)[nH]sc21 [Compound 36, 7-(4-(2-(dimethyl-amino)ethyl)piperazin-1-yl)-9-ethyl-6-fluoroisothia-zolo[5,4-b]quinoline-3,4(2H,9H)-dione]
≤ 1 µg/mL | ≤ 1 µg/mL | – | CCn1c2s[nH]c(=O)c2c(=O)c2cc(F)c(N3CC[C@@H](C(C)(C)N)C3)c(OC)c21 [Compound 59, (R)-7-(3-(2-aminopropan-2-yl)pyrrolidin-1-yl)-9-ethyl-6-fluoro-8-methoxyiso-thiazolo[5,4-b]quinoline-3,4(2H,9H)-dione]
≤ 1 µg/mL | – | ≤ 1 µg/mL | O=c1[nH]sc2c1c(=O)c1cc(F)c(N3CCC4(CC3)OCCO4)cc1n2C1CC1 [Compound 39]
≤ 1 µg/mL | – | ≤ 1 µg/mL | CCn1c2cc(N3CCC(N(C)C)C3)c(F)cc2c(=O)c2c(=O)[nH]sc21 (stereo not shown) [Compound 34, 7-(3-(dimethyl-amino)pyrrolidin-1-yl)-9-ethyl-6-fluoroisothia-zolo[5,4-b]quinoline-3,4(2H,9H)-dione]

SMILES | MIC (S. aureus ATCC 29213) | MIC (MRSA strain ATCC 700699) | MIC (E. coli ATCC 25922)
CCn1c2cc(N3CCNCC3)c(F)cc2c(=O)c2c(=O)[nH]sc21 [Compound 31, 9-ethyl-6-fluoro-7-(piperazin-1-yl)isothia-zolo[5,4-b]quinoline-3,4(2H,9H)-dione] | ≤ 1 µg/mL | – | ≤ 1 µg/mL
